{"source": "ChEMBL document CHEMBL1142644", "about": "“Antineoplastic agents 440. Asymmetric synthesis and evaluation of the combretastatin A-1 SAR probes (1S,2S)- and (1R,2R)-1, 2-dihydroxy- 1-(2',3'-dihydroxy-4'-methoxyphenyl)-2-(3' ',4' ',5' '-trimethoxyphenyl)-ethane” (J Nat Prod, 2000)", "key": {"Escherichia coli": {"system": "Escherichia coli", "experiment": "Antibacterial activity against Escherichia coli at 100 ug/disk by disk susceptibility test"}, "P388": {"system": "P388", "experiment": "Cytotoxicity against mouse P388 cells", "format": "functional", "settings": "read-out: ED50 (the source's name)"}, "Candida albicans [1]": {"system": "Candida albicans", "experiment": "Antifungal activity against Candida albicans at 100 ug/disk by disk susceptibility test"}, "Staphylococcus aureus [2]": {"system": "Staphylococcus aureus", "experiment": "Antibacterial activity against Staphylococcus aureus at 100 ug/disk by disk susceptibility test"}, "Cryptococcus neoformans [3]": {"system": "Cryptococcus neoformans", "experiment": "Antifungal activity against Cryptococcus neoformans at 100 ug/disk by disk susceptibility test"}, "[4]": {"experiment": "Inhibition of bovine tubulin polymerization", "design": "species or system Bos taurus"}, "[5]": {"system": "Stenotrophomonas maltophilia", "experiment": "Antibacterial activity against Stenotrophomonas maltophilia at 100 ug/disk by disk susceptibility test"}, "FaDu": {"system": "FaDu", "experiment": "Cytotoxicity against human FaDu cells", "format": "functional"}, "Enterobacter cloacae": {"system": "Enterobacter cloacae", "experiment": "Antibacterial activity against Enterobacter cloacae at 100 ug/disk by disk susceptibility test"}, "Micrococcus luteus": {"system": "Micrococcus luteus", "experiment": "Antibacterial activity against Micrococcus luteus at 100 ug/disk by disk susceptibility test"}, "Enterococcus faecalis": {"system": "Enterococcus faecalis", "experiment": "Antibacterial activity against Enterococcus faecalis at 100 ug/disk by disk susceptibility test"}, "Neisseria gonorrhoeae [6]": {"system": "Neisseria gonorrhoeae", "experiment": "Antibacterial activity against Neisseria gonorrhoeae at 100 ug/disk by disk susceptibility test"}, "Streptococcus pneumoniae [7]": {"system": "Streptococcus pneumoniae", "experiment": "Antibacterial activity against Streptococcus pneumoniae at 100 ug/disk by disk susceptibility test"}, "Streptococcus pneumoniae [8]": {"system": "Streptococcus pneumoniae", "experiment": "Antibacterial activity against Streptococcus pneumoniae by disk susceptibility test", "format": "functional"}, "Neisseria gonorrhoeae [9]": {"system": "Neisseria gonorrhoeae", "experiment": "Antibacterial activity against Neisseria gonorrhoeae by disk susceptibility test", "format": "functional"}, "[10]": {"system": "Stenotrophomonas maltophilia", "experiment": "Antibacterial activity against Stenotrophomonas maltophilia by disk susceptibility test", "format": "functional"}, "Cryptococcus neoformans [11]": {"system": "Cryptococcus neoformans", "experiment": "Antifungal activity against Cryptococcus neoformans by disk susceptibility test", "format": "functional"}, "Staphylococcus aureus [12]": {"system": "Staphylococcus aureus", "experiment": "Antibacterial activity against Staphylococcus aureus by disk susceptibility test", "format": "functional"}, "Candida albicans [13]": {"system": "Candida albicans", "experiment": "Antifungal activity against Candida albicans by disk susceptibility test", "format": "functional"}, "L1210": {"system": "L1210", "experiment": "Cytotoxicity against mouse L1210 cells", "format": "functional", "settings": "read-out: ED50 (the source's name)"}, "Bos taurus [14]": {"species": "Bos taurus", "experiment": "Displacement of [3H]colchicine from bovine tubulin at inhibitor to colchicine ratio of 1:1", "design": "scale not given: the % may be the effect or the level left"}, "Bos taurus [15]": {"species": "Bos taurus", "experiment": "Displacement of [3H]colchicine from bovine tubulin at inhibitor to colchicine ratio of 0.2:1", "design": "scale not given: the % may be the effect or the level left"}}, "note": "pEC50, pIC50: −log10 of the molar value. Active and inactive are the calls of the source. The rule behind the calls is not given here."}
{"compound": "COc1ccc([C@@H](O)[C@H](O)c2cc(OC)c(OC)c(OC)c2)c(O)c1O", "values": [{"measurement": "Activity", "setting": "Escherichia coli", "value": "inactive"}, {"measurement": "EC50", "setting": "P388", "value": 3.9, "unit": "µg/mL"}, {"measurement": "Activity", "setting": "Candida albicans [1]", "value": "inactive"}, {"measurement": "Activity", "setting": "Staphylococcus aureus [2]", "value": "inactive"}, {"measurement": "Activity", "setting": "Cryptococcus neoformans [3]", "value": "inactive"}, {"measurement": "pIC50", "setting": "[4]", "value": 4.70}, {"measurement": "Activity", "setting": "[5]", "value": "inactive"}, {"measurement": "GI50", "setting": "FaDu", "value": 4.9, "unit": "µg/mL"}, {"measurement": "Activity", "setting": "Enterobacter cloacae", "value": "inactive"}, {"measurement": "Activity", "setting": "Micrococcus luteus", "value": "inactive"}, {"measurement": "Activity", "setting": "Enterococcus faecalis", "value": "inactive"}, {"measurement": "Activity", "setting": "Neisseria gonorrhoeae [6]", "value": "inactive"}, {"measurement": "Activity", "setting": "Streptococcus pneumoniae [7]", "value": "inactive"}]}
{"compound": "COc1ccc(/C=C/c2cc(OC)c(OC)c(OC)c2)c(O)c1O", "values": [{"measurement": "MIC", "setting": "Streptococcus pneumoniae [8]", "value": 50, "unit": "µg"}, {"measurement": "MIC", "setting": "Neisseria gonorrhoeae [9]", "value": 6.25, "unit": "µg"}, {"measurement": "MIC", "setting": "[10]", "value": 50, "unit": "µg"}, {"measurement": "MIC", "setting": "Cryptococcus neoformans [11]", "value": 50, "unit": "µg"}, {"measurement": "MIC", "setting": "Staphylococcus aureus [12]", "value": 50, "unit": "µg"}, {"measurement": "MIC", "setting": "Candida albicans [13]", "value": 50, "unit": "µg"}]}
{"compound": "COc1ccc([C@H](O)[C@@H](O)c2cc(OC)c(OC)c(OC)c2)cc1O", "values": [{"measurement": "MIC", "setting": "Streptococcus pneumoniae [8]", "value": 25, "unit": "µg"}, {"measurement": "EC50", "setting": "P388", "value": 2, "unit": "µg/mL"}, {"measurement": "pIC50", "setting": "[4]", "value": 4.85}, {"measurement": "GI50", "setting": "FaDu", "value": 0.6, "unit": "µg/mL"}]}
{"compound": "COc1ccc([C@@H](O)[C@H](O)c2cc(OC)c(OC)c(OC)c2)cc1O", "values": [{"measurement": "MIC", "setting": "Streptococcus pneumoniae [8]", "value": 50, "unit": "µg"}, {"measurement": "EC50", "setting": "P388", "value": 19, "unit": "µg/mL"}, {"measurement": "pIC50", "setting": "[4]", "value": "< 4.40"}, {"measurement": "GI50", "setting": "FaDu", "value": 2.1, "unit": "µg/mL"}]}
{"compound": "COc1ccc(/C=C\\c2cc(OC)c(OC)c(OC)c2)cc1OP(=O)([O-])[O-].[Na+].[Na+]", "note": "[FOSBRETABULIN DISODIUM]", "values": [{"measurement": "EC50", "setting": "P388", "value": 0.0004, "unit": "µg/mL"}, {"measurement": "MIC", "setting": "Neisseria gonorrhoeae [9]", "value": 50, "unit": "µg"}]}
{"compound": "COc1ccc(/C=C\\c2cc(OC)c(OC)c(OC)c2)cc1O", "note": "[COMBRETASTATIN A4]", "values": [{"measurement": "pEC50", "setting": "L1210", "value": 8.15}, {"measurement": "EC50", "setting": "P388", "value": 0.0003, "unit": "µg/mL"}, {"measurement": "MIC", "setting": "Neisseria gonorrhoeae [9]", "value": 25, "unit": "µg"}, {"measurement": "GI50", "setting": "FaDu", "value": 0.0007, "unit": "µg/mL"}]}
{"compound": "COc1ccc(/C=C\\c2cc(OC)c(OC)c(OC)c2)c(O)c1O", "note": "[COMBRETASTATIN A-1]", "values": [{"measurement": "EC50", "setting": "P388", "value": 0.2, "unit": "µg/mL"}, {"measurement": "MIC", "setting": "Neisseria gonorrhoeae [9]", "value": 25, "unit": "µg"}, {"measurement": "pIC50", "setting": "[4]", "value": 5.96}, {"measurement": "GI50", "setting": "FaDu", "value": 0.23, "unit": "µg/mL"}, {"measurement": "Activity", "setting": "Bos taurus [14]", "value": 99.6, "unit": "%"}, {"measurement": "MIC", "setting": "Staphylococcus aureus [12]", "value": 50, "unit": "µg"}, {"measurement": "Activity", "setting": "Bos taurus [15]", "value": 89, "unit": "%"}]}
{"compound": "COc1ccc([C@H](O)[C@@H](O)c2cc(OC)c(OC)c(OC)c2)c(O)c1O", "values": [{"measurement": "EC50", "setting": "P388", "value": 2.9, "unit": "µg/mL"}, {"measurement": "MIC", "setting": "Neisseria gonorrhoeae [9]", "value": 25, "unit": "µg"}, {"measurement": "pIC50", "setting": "[4]", "value": 5.00}, {"measurement": "GI50", "setting": "FaDu", "value": "> 10", "unit": "µg/mL"}]}
{"compound": "COc1cc(/C=C\\c2ccc(OC)c(OP(=O)([O-])[O-])c2OP(=O)([O-])[O-])cc(OC)c1OC.[Na+].[Na+].[Na+].[Na+]", "values": [{"measurement": "EC50", "setting": "P388", "value": "< 0.01", "unit": "µg/mL"}]}
{"compound": "COc1ccc(/C=C/c2cc(OC)c(OC)c(OC)c2)cc1O", "values": [{"measurement": "Activity", "setting": "Escherichia coli", "value": "inactive"}, {"measurement": "Activity", "setting": "Candida albicans [1]", "value": "inactive"}, {"measurement": "Activity", "setting": "Staphylococcus aureus [2]", "value": "inactive"}, {"measurement": "Activity", "setting": "Cryptococcus neoformans [3]", "value": "inactive"}, {"measurement": "Activity", "setting": "[5]", "value": "inactive"}, {"measurement": "Activity", "setting": "Enterobacter cloacae", "value": "inactive"}, {"measurement": "Activity", "setting": "Micrococcus luteus", "value": "inactive"}, {"measurement": "Activity", "setting": "Enterococcus faecalis", "value": "inactive"}, {"measurement": "Activity", "setting": "Neisseria gonorrhoeae [6]", "value": "inactive"}, {"measurement": "Activity", "setting": "Streptococcus pneumoniae [7]", "value": "inactive"}]}
{"compound": "COc1cc(CCc2ccc(OC)c(OP(=O)([O-])[O-])c2OP(=O)([O-])[O-])cc(OC)c1OC.[Na+].[Na+].[Na+].[Na+]", "values": [{"measurement": "EC50", "setting": "P388", "value": 0.3, "unit": "µg/mL"}]}
{"compound": "COc1ccc(CCc2cc(OC)c(OC)c(OC)c2)c(O)c1O", "values": [{"measurement": "EC50", "setting": "P388", "value": 1.7, "unit": "µg/mL"}, {"measurement": "MIC", "setting": "Neisseria gonorrhoeae [9]", "value": 12.5, "unit": "µg"}]}
